# Test results published in patent US20160168140A1, “HETEROCYCLIC COMPOUNDS AS ANTIBIOTIC POTENTIATORS” (priority 2014, published 2016).
# Like-named read-outs stand apart in the source and are kept apart here.
# What was measured:
# Providencia stuartii = experiment: Colistin MIC / MIC shift with compound at 10 μM (isolate panel, Table 19); assay type: cell-based; details: Providencia stuartii 6644, Colistin-R
# Klebsiella pneumoniae = experiment: MIC shift assay of antibiotics (broth microdilution); assay type: cell-based; details: for Colistin & Cmpd MIC shift / Colistin MIC with compound: compound at 10 μM
# Method: (§1) Minimum inhibitory concentration (MIC) shift assays were performed to determine if the test compounds could alter the MIC of existing antibacterial drugs (e.g., ciprofloxacin and colistin) for E. coli, Acinetobacter baumannii, Klebsiella pneumoniae, Pseudomonas aeruginosa, and Enterobacter cloacae. The MIC shift assay is based on the standard broth microdilution MIC determination protocol of Wiegand et al, Nat Protoc. 3(2):163-75 (2008), with slight modifications that allow for the screening of up to seven test compounds in a single plate.
# (§2) On the day before an assay, bacteria were grown overnight in cation-adjusted Mueller Hinton broth (CAMHB; Teknova, Hollister, Calif.) at 37° C. in an orbital shaker and sub-cultured at a 1:200 dilution the following morning. The cells were grown to OD600=0.5 to 0.8 and then diluted to OD600=0.01. From a serial dilution of each antibiotic at (50 μL of 2× concentrated stock solutions) several concentrations were added to the wells of a sterile, transparent round-bottom 96-well plate (Phenix Research Products, Candler, N.C.), and diluted cells (50 μL) were added to the plates for a starting OD600 of 0.005. Then, a test compound (2.5 μL) was added to each well to give a final concentration of 4 or 10 μM. A row of wells lacking test compound but containing the antibiotic was used to determine the MIC of that antibiotic alone. A column of wells lacking both antibiotic and test compound served as a growth control, and an additional column containing only CAMHB was included as a sterile blank control.
# (§3) The plates were incubated for 18 to 20 h at 37° C. in an orbital shaker, and the cell density (OD600) was determined the following day in a microplate reader (PolarStar Optima, BMG Labtech). The MIC shift was determined by comparing the MIC of the antibiotic alone to the MIC of the antibiotic plus test compound.
# Pseudomonas aeruginosa = experiment: as above; assay type: cell-based; details: for Colistin & Cmpd MIC shift / Colistin MIC with compound: compound at 10 μM
# Method: as §1, §2, §3
# E. coli = experiment: as above; assay type: cell-based
# Method: as §1, §2, §3
# Proteus vulgaris = experiment: Colistin MIC / MIC shift with compound at 10 μM (isolate panel, Table 19); assay type: cell-based; details: Proteus vulgaris 6240, Colistin-R
# [1] = tested on: Acinetobacter baumannii (Ab23); experiment: MIC shift assay of antibiotics (broth microdilution); assay type: cell-based; details: for Colistin & Cmpd MIC shift / Colistin MIC with compound: compound at 10 μM
# Procedure, shortened: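 Broth microdilution MIC shift assay against Acinetobacter baumannii. Overnight cultures in cation-adjusted Mueller Hinton broth at 37° C. were sub-cultured 1:200, grown to OD600=0.5 to 0.8, diluted to OD600=0.01, and added (50 μL) to wells holding 50 μL of 2× antibiotic stocks for a starting OD600 of 0.005. After 18 to 20 h at 37° C. with shaking, OD600 was read to obtain MICs.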
# Serratia marcescens = experiment: Colistin MIC / MIC shift with compound at 10 μM (isolate panel, Table 19); assay type: cell-based; details: Serratia marcescens 6147, Colistin-R
# Staphylococcus aureus = experiment: as above; assay type: cell-based; details: for Colistin & Cmpd MIC shift / Colistin MIC with compound: compound at 10 μM
# Burkholderia cepacia = experiment: as above; assay type: cell-based; details: Burkholderia cepacia 547, Colistin-R
# Ab23 = experiment: Time-kill assay with colistin and potentiator; assay type: cell-based, Acinetobacter baumannii; parameters: time-kill: concentration of potentiator required for effect: unit not given here; details: for time-kill: effect on Ab23 cells in the absence of colistin: compound alone (compound III at 10 μM), FIGS. 2-4; for time-kill: effect in the presence of colistin: compound plus colistin, Ab23, FIGS. 2-4
# Method: Colistin and potentiator were diluted to 1000× final concentrations in water and DMSO, respectively. Then, 3 μl of the appropriate dilutions were added to culture tubes. An overnight culture of Ab23 was diluted to 10^6 CFU/ml, and 3 mL of cells were added to the tubes. The cultures were incubated at 37° C. in an orbital shaker. An aliquot of the starting inoculum was serially diluted in CAMHB and spread on LB agar plates for CFU determination. At 2, 4, 8, and 24 hours, aliquots were removed from each of the culture tubes, diluted, and spread LB agar plates. The plates were incubated overnight at 37° C. The following day, the number of CFUs on each plate was counted, and the number of bacterial in each culture condition was calculated. Colistin (“C”) was tested at 2 and 8 µg/mL. The select compounds (“P”) were tested at 2 and 10 µg/mL. The dotted line indicates the limit of detection.
# [2] = tested on: panel of Gram-negative bacteria with different colistin susceptibilities; experiment: Fractional inhibitory concentration index (FICI) checkerboard assay with colistin; assay type: cell-based; details: for FICI Values of Colistin and Potentiator in Resistant Bacteria: FICI values of ≦0.5 indicate synergy
# Method: The fractional inhibitory concentration index (FICI) was determined in combination with colistin using the broth microdilution susceptibility test method as described by the CLSI (Methods for Dilution Antimicrobial Susceptibility Tests for Bacteria That Grow Aerobically; Approved Standard-Ninth Edition. 2012. CLSI document M07-A9. CLIS, 940 West Valley Road, Suite 1400, Wayne, Pa. 19087-1898 USA). This checkerboard assay was set up with decreasing concentrations of colistin across the plate from left to right and decreasing concentrations of potentiator from top to bottom. The FICI values were then calculated using the methods of Lorian et al. (Antibiotics in Laboratory Medicine—Fifth Edition. 2005. Lippincott, Williams, & Wilkins, Philadelphia, Pa.). A panel of Gram-negative bacteria with different colistin susceptibilities were tested.
# Each of the tested compounds synergized with colistin in the three species of colistin-resistant bacteria tested.
# [3] = Klebsiella pneumoniae 2237, Colistin-R
# [4] = Klebsiella pneumoniae ATCC 13883 (MMX 214), Colistin-S
# [5] = Pseudomonas aeruginosa 1582, Colistin-I
# [6] = Pseudomonas aeruginosa 6977, Colistin-R
# [7] = Pseudomonas aeruginosa ATCC 27853 (MMX 103), QC, Colistin-S
# [8] = Escherichia coli ATCC 25922 (MMX 102), QC, Colistin-S, compound at 10 μM
# [9] = Acinetobacter baumannii ATCC 19606 (MMX 1630), Colistin-S
# [10] = Acinetobacter baumannii Ab23, Colistin-R
# [11] = Staphylococcus aureus ATCC 43300 (MMX 5999), MRSA
# [12] = colistin-resistant A. baumannii
# [13] = colistin-resistant K. pneumoniae
# [14] = colistin-resistant P. aeruginosa
structure (smiles),measurement,setting,value
Cc1cccc2c(NCCCN(C)C)nc(-c3cc(-c4ccccc4)cc(C(F)(F)F)c3)nc12 [compound 343],"MIC, agent alone",Providencia stuartii,> 32 µg/mL
same,Colistin & Cmpd MIC shift,Providencia stuartii; compound at 10 μM,4
same,Colistin MIC with compound,Providencia stuartii; compound at 10 μM,> 16 µg/mL
same,"MIC, agent alone",Klebsiella pneumoniae; [3],> 32 µg/mL
same,Colistin & Cmpd MIC shift,Klebsiella pneumoniae; [3],128
same,Colistin MIC with compound,Klebsiella pneumoniae; [3],0.25 µg/mL
same,"MIC, agent alone",Klebsiella pneumoniae; [4],> 32 µg/mL
same,Colistin & Cmpd MIC shift,Klebsiella pneumoniae; [4],8
same,Colistin MIC with compound,Klebsiella pneumoniae; [4],0.015 µg/mL
same,"MIC, agent alone",Pseudomonas aeruginosa; [5],> 32 µg/mL
same,Colistin & Cmpd MIC shift,Pseudomonas aeruginosa; [5],2
same,Colistin MIC with compound,Pseudomonas aeruginosa; [5],0.5 µg/mL
same,"MIC, agent alone",Pseudomonas aeruginosa; [6],> 32 µg/mL
same,Colistin & Cmpd MIC shift,Pseudomonas aeruginosa; [6],64
same,Colistin MIC with compound,Pseudomonas aeruginosa; [6],1 µg/mL
same,"MIC, agent alone",Pseudomonas aeruginosa; [7],> 32 µg/mL
same,Colistin & Cmpd MIC shift,Pseudomonas aeruginosa; [7],4
same,Colistin MIC with compound,Pseudomonas aeruginosa; [7],0.06 µg/mL
same,Colistin MIC Shift,"E. coli; E. coli (SCR1), compd. concentration 4.0 μM, colistin MIC 0.5-1.0 μg/mL",16x
same,"MIC, agent alone","E. coli; Escherichia coli ATCC 25922 (MMX 102), QC, Colistin-S",> 32 µg/mL
same,Colistin & Cmpd MIC shift,E. coli; [8],8
same,Colistin MIC with compound,E. coli; [8],0.015 µg/mL
same,"MIC, agent alone",Proteus vulgaris,> 32 µg/mL
same,Colistin & Cmpd MIC shift,Proteus vulgaris; compound at 10 μM,4
same,Colistin MIC with compound,Proteus vulgaris; compound at 10 μM,> 16 µg/mL
same,Colistin MIC Shift,"[1]; A. baumannii (MDR Ab), compd. concentration 4.0 μM, colistin MIC 0.5-1.0 μg/mL",8x
same,"MIC, agent alone",[1]; [9],16 µg/mL
same,Colistin & Cmpd MIC shift,[1]; [9],17
same,Colistin MIC with compound,[1]; [9],0.015 µg/mL
same,"MIC, agent alone",[1]; [10],8 µg/mL
same,Colistin & Cmpd MIC shift,[1]; [10],4267
same,Colistin MIC with compound,[1]; [10],0.015 µg/mL
same,"colistin MIC shift, Ab23 at (compd concentration)","[1]; compound concentration 2 μM, fold shift of colistin MIC, nc = no changeover or no shift",8-16x
same,"MIC, agent alone",Serratia marcescens,> 32 µg/mL
same,Colistin & Cmpd MIC shift,Serratia marcescens; compound at 10 μM,256
same,Colistin MIC with compound,Serratia marcescens; compound at 10 μM,0.25 µg/mL
same,"MIC, agent alone",Staphylococcus aureus,1 µg/mL
same,"MIC, agent alone",Staphylococcus aureus; [11],1 µg/mL
same,Colistin & Cmpd MIC shift,Staphylococcus aureus; [11],4267
same,Colistin MIC with compound,Staphylococcus aureus; [11],≤ 0.015 µg/mL
same,Colistin & Cmpd MIC shift,Staphylococcus aureus,4267
same,Colistin MIC with compound,Staphylococcus aureus,≤ 0.015 µg/mL
same,"MIC, agent alone",Burkholderia cepacia,> 32 µg/mL
same,Colistin & Cmpd MIC shift,Burkholderia cepacia; compound at 10 μM,4
same,Colistin MIC with compound,Burkholderia cepacia; compound at 10 μM,> 16 µg/mL
CN(C)CCCNc1nc(/C=C/c2ccc(Cl)c(Cl)c2)nc2c(C(F)(F)F)cccc12 [compound III],time-kill: effect on Ab23 cells in the absence of colistin,Ab23,"reduced Ab23 in two hours, although the effect was not sustained"
same,time-kill: effect in the presence of colistin,Ab23,potent synergists of colistin
same,MIC Shift of Colistin and Potentiator in Resistant Bacteria,[2]; [12],133 x
same,FICI Values of Colistin and Potentiator in Resistant Bacteria,[2]; [12],0.21
same,MIC Shift of Colistin and Potentiator in Resistant Bacteria,[2]; [13],533 x
same,FICI Values of Colistin and Potentiator in Resistant Bacteria,[2]; [13],0.17
same,MIC Shift of Colistin and Potentiator in Resistant Bacteria,[2]; [14],33 x
same,FICI Values of Colistin and Potentiator in Resistant Bacteria,[2]; [14],0.19
FC(F)(F)c1ccc2c(-c3ccc(Cl)c(Cl)c3)n[nH]c2c1 [compound II],time-kill: effect on Ab23 cells in the absence of colistin,Ab23,had no effect on the cells
same,time-kill: effect in the presence of colistin,Ab23,potent synergists of colistin
same,MIC Shift of Colistin and Potentiator in Resistant Bacteria,[2]; [12],267 x
same,FICI Values of Colistin and Potentiator in Resistant Bacteria,[2]; [12],0.15
same,MIC Shift of Colistin and Potentiator in Resistant Bacteria,[2]; [13],32 x
same,FICI Values of Colistin and Potentiator in Resistant Bacteria,[2]; [13],0.39
same,MIC Shift of Colistin and Potentiator in Resistant Bacteria,[2]; [14],16 x
same,FICI Values of Colistin and Potentiator in Resistant Bacteria,[2]; [14],0.26
Clc1ccc(/C=C/c2c[nH]c3ccc(Br)cc23)cc1Cl [compound I],time-kill: effect on Ab23 cells in the absence of colistin,Ab23,had no effect on the cells
same,time-kill: effect in the presence of colistin,Ab23,potent synergists of colistin
same,time-kill: concentration of potentiator required for effect,"Ab23; in combination with colistin, Ab23, FIG. 2",2
same,MIC Shift of Colistin and Potentiator in Resistant Bacteria,[2]; [12],133 x
same,FICI Values of Colistin and Potentiator in Resistant Bacteria,[2]; [12],0.25
same,MIC Shift of Colistin and Potentiator in Resistant Bacteria,[2]; [13],64 x
same,FICI Values of Colistin and Potentiator in Resistant Bacteria,[2]; [13],0.30
same,MIC Shift of Colistin and Potentiator in Resistant Bacteria,[2]; [14],16 x
same,FICI Values of Colistin and Potentiator in Resistant Bacteria,[2]; [14],0.26
